Data: patent publication US7973063B2, “Methods for activating PPAR gamma-type receptors” (Galderma Research & Development, priority 2004, dated 2011)
Like-named read-outs stand apart in the source and are kept apart here.

Columns and labels:
PPARγ [1] = molecular target: T1, PPARγ (Homo sapiens, UniProt P37231); assay: Crossed-curve PPAR transactivation assay (PPARγ); format: cell-based
T1 construct: PPARγ KdApp; other: HeLN cells stably transfected with Gal-hPPARγ and luciferase reporter; KdApp in nM (PPARγ receptors), compounds according to the present invention; Either is a handle for the test and no part of the key
T1 sequence (P37231 238-505 limits assumed): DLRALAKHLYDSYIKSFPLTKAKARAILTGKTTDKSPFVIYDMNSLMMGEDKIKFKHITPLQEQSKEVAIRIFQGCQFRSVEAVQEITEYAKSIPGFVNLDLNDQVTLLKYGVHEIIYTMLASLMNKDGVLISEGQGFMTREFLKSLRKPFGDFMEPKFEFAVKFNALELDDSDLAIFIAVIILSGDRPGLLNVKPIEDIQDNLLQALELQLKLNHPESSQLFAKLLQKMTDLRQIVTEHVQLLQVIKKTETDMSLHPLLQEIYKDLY
Method: (§1) Activation of the PPAR receptors by an agonist (activator) in HeLN cells leads to the expression of a reporter gene, luciferase, which, in the presence of a substrate, generates light. The modulation of the PPAR receptors is measured by quantifying the luminescence produced after incubation of the cells in the presence of a reference agonist. The ligands will displace the agonist from its site. The measurement of the activity is performed by quantifying the light produced. This measurement makes it possible to determine the modulatory activity of the compounds according to the invention by the determination of the constant which is the affinity of the molecule for the PPAR receptor. Since this value can fluctuate depending on the basal activity and the expression of the receptor, it is referred to as apparent Kd (KdApp in nM).
(§2) To determine this constant, “crossed curves” for the test product, against a reference agonist, are prepared using a 96-well plate: 10 concentrations of the test product plus a concentration 0 are arranged in a line, and 7 concentrations of the agonist plus a concentration 0 are arranged in a column. This is 88 measurement points for 1 product and 1 receptor. The remaining 8 wells are used for repeatability controls.
(§3) Measurements are also taken for total agonist controls with the same products.
(§4) The HeLN cell lines used are stable transfectants containing the plasmids ERE-βGlob-Luc-SV-Neo (reporter gene) and PPAR (α, δ, γ) Gal-hPPAR. These cells are seeded in 96-well plates at the rate of 10 000 cells per well in 100 μl of DMEM medium without phenol red and supplemented with 10% of defatted calf serum. The plates are then incubated for 16 hours at 37° C. and 7% CO2.
(§5) The various dilutions of the test products and of the reference ligand are added at the rate of 5 μl per well. The plates are subsequently incubated for 18 hours at 37° C. and 7% CO2. The culture medium is removed by turning over and 100 μl of a 1:1 PBS/luciferin mixture are added to each well. After 5 minutes, the plates are read using the luminescence reader.

PPARδ = molecular target: T2, PPARδ (Homo sapiens, UniProt Q03181); assay: Crossed-curve PPAR transactivation assay (PPARδ); format: cell-based; details: HeLN cells stably transfected with Gal-hPPARδ and luciferase reporter; crossed curves vs reference agonist, Schild regression; read-out: PPARδ KdApp
T2 construct: Either is a handle for the test and no part of the key
T2 sequence (Q03181 171-441 limits assumed): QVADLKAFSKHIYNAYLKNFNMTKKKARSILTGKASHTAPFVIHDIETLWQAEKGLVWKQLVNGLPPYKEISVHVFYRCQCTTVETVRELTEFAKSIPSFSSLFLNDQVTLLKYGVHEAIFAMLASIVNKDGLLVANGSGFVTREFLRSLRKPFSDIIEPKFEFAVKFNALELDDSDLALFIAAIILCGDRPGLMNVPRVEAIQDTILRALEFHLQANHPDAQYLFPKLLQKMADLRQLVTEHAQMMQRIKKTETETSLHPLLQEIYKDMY
Method: as §1, §2, §3, §4, §5

PPARα = molecular target: T3, PPARα (Homo sapiens, UniProt Q07869); assay: Crossed-curve PPAR transactivation assay (PPARα); format: cell-based; details: HeLN cells stably transfected with Gal-hPPARα and luciferase reporter; crossed curves vs reference agonist, Schild regression; read-out: PPARα KdApp
T3 construct: Either is a handle for the test and no part of the key
T3 sequence (Q07869 200-468 limits assumed): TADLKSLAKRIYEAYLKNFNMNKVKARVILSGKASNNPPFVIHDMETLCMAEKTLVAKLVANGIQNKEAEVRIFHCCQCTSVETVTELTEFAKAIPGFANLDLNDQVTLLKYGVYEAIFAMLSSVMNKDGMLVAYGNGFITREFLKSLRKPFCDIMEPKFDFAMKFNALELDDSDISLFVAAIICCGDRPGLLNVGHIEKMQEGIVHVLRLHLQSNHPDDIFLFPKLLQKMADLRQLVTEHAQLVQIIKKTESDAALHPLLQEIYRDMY
Method: as §1, §2, §3, §4, §5

PPARγ [2] = details: Table 1, PPARγ receptors; values described for the compounds of FR-2,812,876; read-out: KdApp in nM (PPARγ receptors), compounds according to Patent FR 2 812 876; cited from earlier work
[3] = HeLN cells stably transfected with Gal-hPPARγ and luciferase reporter, crossed curves vs reference agonist, Schild regression, read-out: PPARγ KdApp

SMILES | Kd (PPARγ [1]; [3]) [nM] | Kd (PPARγ [1]; Table 1, PPARγ receptors, read-out: KdApp in nM (PPARγ receptors), compounds according to the present invention) [nM] | Kd (PPARδ) [nM] | Kd (PPARα) [nM] | Kd (PPARγ [2]) [nM]
CCCCCNC(=O)N(C)c1cccc(-c2ccc(C[C@H](OCC)C(=O)O)cc2)c1 [Example 2, 2(S)-Ethoxy-3-[3′-(1-methyl-3-pentylureido)biphenyl-4-yl]propanoic acid] | 0.03 |  | 2000 | 250 | 
CCO[C@@H](Cc1ccc(-c2cccc(CN(C)C(=O)c3ccccc3)c2)cc1)C(=O)O [Example 13, (S)-2-Ethoxy-3-(3′-{[methyl(1-phenylmethanoyl)amino]methyl}biphenyl-4-yl)propionic acid] |  |  |  |  | 500
CN(Cc1cccc(-c2ccc(CC3SC(=O)NC3=O)cc2)c1)C(=O)C(C)(C)C (centres unmarked) [Example 22, N-[4′-(2,4-Dioxothiazolidin-5-ylmethyl)biphenyl-3-ylmethyl]-2,2,N-trimethylpropionamide] |  |  |  |  | 250
CCCCCCCCNC(=O)c1cccc(-c2ccc(CC3SC(=O)NC3=O)cc2)c1 (centres unmarked) [Example 23, N-Octyl-4′-(2,4-dioxothiazolidin-5-ylmethyl)biphenyl-3-carboxamide] |  |  |  |  | 2000
CCCCCCCCCC(=O)N(C)Cc1cccc(-c2ccc(CC3SC(=O)NC3=O)cc2)c1 (centres unmarked) [Example 32, N-[4′-(2,4-Dioxothiazolidin-5-ylmethyl)biphenyl-3-ylmethyl]-N-methyldecanamide] |  |  |  |  | 250
CCCCCCC(=O)N(C)Cc1cccc(-c2ccc(CC3SC(=O)NC3=O)cc2)c1 (centres unmarked) [Example 35, N-[4′-(2,4-Dioxothiazolidin-5-ylmethyl)biphenyl-3-ylmethyl]-N-methylheptanamide] |  |  |  |  | 1000

More lines, main results first:

Kd (PPARγ [1]; [3]) [nM] | Kd (PPARγ [1]; Table 1, PPARγ receptors, read-out: KdApp in nM (PPARγ receptors), compounds according to the present invention) [nM] | Kd (PPARδ) [nM] | Kd (PPARα) [nM] | SMILES | Kd (PPARγ [2]) [nM]
< 1 | < 1 | 250 | 30 | CCCCCCCNC(=O)N(C)c1cccc(-c2ccc(C[C@H](OCC)C(=O)O)cc2)c1 [Example 1, 2(S)-Ethoxy-3-[3′-(3-heptyl-1-methylureido)biphenyl-4-yl]propanoic acid] | 
0.025 |  | 500 | 30 | CCCCCCCNC(=O)N(C)c1cccc(-c2ccc(C[C@H](OCCC)C(=O)O)cc2)c1 [Example 4, 2-(S)-Propyloxy-3-[3′-(3-heptyl-1-methylureido)biphenyl-4-yl]propanoic acid] | 
0.03 |  |  | 250 | CCCCCCCNC(=O)N(C)c1cccc(-c2ccc(C[C@H](OCc3ccccc3)C(=O)O)cc2)c1 [Example 5, 2(S)-Benzyloxy-3-[3′-(3-heptyl-1-methylureido)biphenyl-4-yl]propanoic acid] | 
0.003 |  | 50 | 2 | C=CCO[C@@H](Cc1ccc(-c2cccc(N(C)C(=O)NCCCCCCC)c2)cc1)C(=O)O [Example 6, 2(S)-Allyloxy-3-[3′-(3-heptyl-1-methylureido)biphenyl-4-yl]propanoic acid] | 
